Measurements from patent publication US9676789B2, “Aminated derivative of homoharringtonine, preparation method therefor, and application thereof” (HANGZHOU BENSHENG PHARMACEUTICAL CO., LTD., priority 2011, dated 2017).

Key:
[1] = test system: K562/adr, NB4, Kasumi-1 and H9; test: Anti-leukemia activity, summary over cell lines; assay type: cell-based, human; settings: result in words, summary of Table 1
Source text: Leukemia cell lines: K562/adr (drug-resistant, chronic myeloid leukemia, CML), NB4 (acute promyelocytic leukemia, AML), Kasumi-1 (acute myeloid leukemia M2 type, AML-M2), Jurkat (acute lymphoblastic leukemia, ALL), all of which are donated by Cancer Research Institute of Zhejiang University, China; and H9 (acute lymphoblastic leukemia, ALL), which is purchased from China Center for Type Culture Collection.
Obtaining 6000 well-growing leukemia cells and inoculating them into wells of a 96-well cell culture plate. The culture medium is the 1640 cell culture medium containing 10% fetal bovine serum. After adding the homoharringtonine derivatives of different concentrations and mixing uniformly, placing the plate in a carbon dioxide cell incubator (5% CO2) at 37° C. and incubating for 72 hours. Then the viable cell concentration is determined by the MTT method. In this experiment, the cell viability in control group (not treated with any compound) is set as 100%.

[2] = test system: Jurkat (acute lymphoblastic leukemia, ALL); test: MTT leukemia cell growth inhibition, 72 h; assay type: cell-based, human
Summary of the method: (§1)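 Readout: MTT viability after 72 h exposure to graded compound concentrations, normalised to untreated cells (100%). 6000 cells/well in 1640 medium + 10% FBS, 37 °C, 5% CO2.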

[3] = test system: NB4 (acute promyelocytic leukemia, AML); test: MTT leukemia cell growth inhibition, 72 h; assay type: cell-based, human; settings: NB4, 72 h
Summary of the method: as §1

[4] = test system: H9 (acute lymphoblastic leukemia, ALL); test: MTT leukemia cell growth inhibition, 72 h; assay type: cell-based, human; settings: H9, 72 h
Summary of the method: as §1

[5] = test system: K562/adr (drug-resistant, chronic myeloid leukemia, CML); test: MTT leukemia cell growth inhibition, 72 h; assay type: cell-based, human; settings: K562/adr
Summary of the method: as §1

[6] = test system: Kasumi-1 (acute myeloid leukemia M2 type, AML-M2); test: MTT leukemia cell growth inhibition, 72 h; assay type: cell-based, human; settings: Kasumi-1, 72 h
Summary of the method: as §1

[7] = test system: MGC 803 (human gastric cancer cell); test: MTT solid tumor cell growth inhibition, 72 h; assay type: cell-based; settings: MGC 803, 72 h
Summary of the method: (§2)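 MTT read-out after 72 h drug exposure; viability % relative to untreated cells set at 100%. Seeding 4000 cells/well, DMEM high glucose + 10% FBS, 24 h pre-incubation, 37° C, 5% CO2.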

[8] = test system: RKO (human colon adenocarcinoma cell); test: MTT solid tumor cell growth inhibition, 72 h; assay type: cell-based
Summary of the method: as §2

[9] = test system: Huh7 (human liver cancer cell); test: MTT solid tumor cell growth inhibition, 72 h; assay type: cell-based; settings: Huh7, 72 h
Summary of the method: as §2

A549 (human lung cancer) = test: MTT solid tumor cell growth inhibition, 72 h; assay type: cell-based; settings: A549, 72 h
Summary of the method: as §2

[10] = test system: Hela (human cervical cancer cell); test: MTT solid tumor cell growth inhibition, 72 h; assay type: cell-based; settings: Hela
Summary of the method: as §2

[11] = test system: Hep-2 (human hepatocellular carcinoma); test: MTT solid tumor cell growth inhibition, 72 h; assay type: cell-based; settings: Hep2, 72 h
Summary of the method: as §2

[12] = test system: Becap37 (human breast cancer cell); test: MTT solid tumor cell growth inhibition, 72 h; assay type: cell-based; settings: Becap37, 72 h
Summary of the method: as §2

[13] = test system: A549, PANC-1, Becap37, MG63, Huh7, RKO, Hela, CaES-17, CNE, Hep-2, PC-3 and SK-OV-3; test: Anti-human solid tumor effect, summary over cell lines; assay type: cell-based; settings: result in words, summary of Table 2
Protocol: Human solid tumor cell lines: Hep-2 ([…]), A549 (human lung cancer), CaES-17 (esophageal cancer cell), PC-3 (prostate cancer), CNE (nasopharyngeal carcinoma cell), and SK-OV-3 (ovarian cancer cell), all of which are purchased from China Center For Type Culture Collection; RKO (human colon adenocarcinoma cell), MGC 803 (human gastric cancer cell), MG63 (osteosarcoma) and U87 MG (malignant glioma cell), all of which are purchased from Fuxiang Bio-tech Co. Ltd., Shanghai, China; PANC-1 (pancreatic cancer), Huh7 (human liver cancer cell), Becap37 (human breast cancer cell), and Hela (human cervical cancer cell), all of which are donated by Cancer Research Institute of Zhejiang University, China.
Obtaining 4000 well-growing human solid tumor cells and inoculating them into wells of a 96-well cell culture plate. The culture medium is DMEM High Glucose cell culture medium containing 10% fetal bovine serum. The plate is placed in a carbon dioxide cell incubator (5% CO2) at 37° C. and incubating for 24 hours. After adding the homoharringtonine derivatives of different concentration and mixing uniformly, the plate is placed in a carbon dioxide cell incubator (5% CO2) at 37° C. and incubating for 72 hours. Then the viable cell concentration is determined by the MTT method and the cell viability (%) after drug treatment is calculated. In this experiment, the cell viability of control group (not treated with any compound) is set as 100%.

MG63 (osteosarcoma) = test: MTT solid tumor cell growth inhibition, 72 h; assay type: cell-based, human; settings: MG 63, 72 h
Summary of the method: as §2

[14] = test system: U87 MG (malignant glioma cell); test: MTT solid tumor cell growth inhibition, 72 h; assay type: cell-based, human
Summary of the method: as §2

[15] = test system: CNE (nasopharyngeal carcinoma cell); test: MTT solid tumor cell growth inhibition, 72 h; assay type: cell-based, human
Summary of the method: as §2

[16] = test system: SK-OV-3 (ovarian cancer cell); test: MTT solid tumor cell growth inhibition, 72 h; assay type: cell-based, human; settings: SK-OV-3, 72 h
Summary of the method: as §2

[17] = test system: CaES-17 (esophageal cancer cell); test: MTT solid tumor cell growth inhibition, 72 h; assay type: cell-based, human; settings: CaES-17, 72 h
Summary of the method: as §2

[18] = test system: PANC-1 (pancreatic cancer); test: MTT solid tumor cell growth inhibition, 72 h; assay type: cell-based, human; settings: PANC-1, 72 h
Summary of the method: as §2

PC-3 (prostate cancer) = test: MTT solid tumor cell growth inhibition, 72 h; assay type: cell-based, human; settings: PC-3, 72 h
Summary of the method: as §2

[19] = test system: RPMI8226 (multiple myeloma); test: MTT multiple myeloma cell growth inhibition, 72 h; assay type: cell-based, human
Summary of the method: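 RPMI8226 cells at 6000 per well in 1640 medium with 10% fetal bovine serum, exposed to homoharringtonine derivatives at various concentrations. Incubation 72 h at 37° C, 5% CO2; viable cells read by MTT.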

Q: How did the “anti-K562/adr, anti-NB4, anti-Kasumi-1 and anti-H9 activity” value [1] turn out when “O-3-[(2R)-2,6-dihydroxy-2-(2′-pyrrolyl-2′-oxoethyl)-6-methylheptanoyl]cephalotaxine [BS-HH-012]” was run?
A: strong

Q: And the IC50 [2]?
A: 0.058 µg/mL

Q: What about the IC90 [2] of the same substance?
A: 16 µg/mL

Q: And the IC50 [3]?
A: 0.08 µg/mL

Q: And the IC90 [3]?
A: 0.23 µg/mL

Q: And the IC50 [4]?
A: 0.27 µg/mL

Q: And the IC90 [4]?
A: 3.49 µg/mL

Q: And the IC50 [5]?
A: 0.65 µg/mL

Q: And the IC90 [5]?
A: 9.87 µg/mL

Q: What about the IC50 [6] of the same substance?
A: 0.038 µg/mL

Q: And the IC90 [6]?
A: 0.14 µg/mL

Q: And the IC50 [7]?
A: 0.24 µg/mL

Q: What about the IC90 [7] of the same substance?
A: 6.84 µg/mL

Q: And the IC50 [8]?
A: 0.11 µg/mL

Q: And the IC90 [8]?
A: 0.43 µg/mL

Q: And the IC50 [9]?
A: 0.2 µg/mL

Q: What about the IC90 [9] of the same substance?
A: >16 µg/mL

Q: And the IC50 (A549 (human lung cancer))?
A: 0.45 µg/mL

Q: What about the IC90 (A549 (human lung cancer)) of the same substance?
A: >16 µg/mL

Q: What about the IC50 [10] of the same substance?
A: 0.35 µg/mL

Q: What about the IC90 [10] of the same substance?
A: >16 µg/mL

Q: What about the IC50 [11] of the same substance?
A: 0.15 µg/mL

Q: And the IC90 [11]?
A: >16 µg/mL

Q: What about the IC50 [12] of the same substance?
A: 0.26 µg/mL

Q: And the IC90 [12]?
A: 16 µg/mL

Q: And the “anti-A549, anti-PANC-1, anti-Becap37, anti-MG63, anti-Huh7, anti-RKO, anti-Hela, anti-CaES-17, anti-CNE, anti-Hep-2, anti-PC-3 and anti-SK-OV-3 effect” value [13]?
A: strong

Q: And the IC50 (MG63 (osteosarcoma))?
A: 0.18 µg/mL

Q: What about the IC90 (MG63 (osteosarcoma)) of the same substance?
A: >16 µg/mL

Q: What about the IC50 [14] of the same substance?
A: 0.24 µg/mL

Q: What about the IC90 [14] of the same substance?
A: 1.13 µg/mL

Q: And the IC50 [15]?
A: 0.13 µg/mL

Q: And the IC90 [15]?
A: >16 µg/mL

Q: And the IC50 [16]?
A: 0.41 µg/mL

Q: And the IC90 [16]?
A: >16 µg/mL

Q: What about the IC50 [17] of the same substance?
A: 0.43 µg/mL

Q: What about the IC90 [17] of the same substance?
A: >16 µg/mL

Q: What about the IC50 [18] of the same substance?
A: 0.26 µg/mL

Q: And the IC90 [18]?
A: >16 µg/mL

Q: What about the IC50 (PC-3 (prostate cancer)) of the same substance?
A: 0.32 µg/mL

Q: What about the IC90 (PC-3 (prostate cancer)) of the same substance?
A: >16 µg/mL

Q: And the IC50 ([19]; RPMI8226, 72 h)?
A: 0.057 µg/mL

Q: What about the IC90 ([19]; RPMI8226, 72 h) of the same substance?
A: 0.36 µg/mL

Q: What about the “anti-RPMI8226 (multiple myeloma) effect” value ([19]; result in words, summary of Table 2) of the same substance?
A: strong
